Non-standard residues stand in square brackets, D forms with d. Residues, ends and D or L forms follow the SMILES beside them. *: point of attachment. Sta = CC(C)C[C@H](N)[C@@H](O)CC(=O)O; Decanoyl = CCCCCCCCCC(=O)*; Isovaleryl = CC(C)CC(=O)*; CH2Cl = ClC*
Tests used:
[1] = tested on: latent TGF-β activation in human platelets; test: TGF-β activation by thrombin-activated human platelets, active and total TGF-β by PAI/L bioassay; assay type: cell-based; settings: for latent TGF-β activation: platelets pre-incubated with inhibitor before thrombin stimulation, platelet releasates, FIG. 1 panels A and B
[2] = tested on: latent TGF-β activation in platelet-free releasates; test: TGF-β activation in platelet-free releasates of activated platelets, PAI/L bioassay; assay type: biochemical, human; settings: inhibitor added to platelet-free releasates, 30 mm at 37° C.; FIG. 2B
Protocol: In a further experiment, furin inhibitors were added to platelet-free releasates of activated platelets, and activation was allowed to continue in the absence of platelets for […] at 37° C. The results of this experiment are shown in panel B of FIG. 2. Active TGF-β levels in the controls were 77 pg/ml (dec-RVKR-cmk data (SEQ ID NO:1)) and 104 pg/ml (hexaarginine data (SEQ ID NO: 7)). Incubation on ice reduced activation in the controls to approximately 56% (data not shown). Data represent the mean values of three independent experiments assayed in triplicate.

[3] = tested on: furin-like enzyme activity; test: Furin-like enzyme activity in platelet lysates and releasates, fluorogenic furin substrate pyr-RTKR-amc; assay type: biochemical, human; settings: hexaarginine 200 μM, dec-RVKR-cmk 150 μM, FIG. 3; for furin-like enzyme activity in cell lysates: hypotonic lysates of activated platelets; for furin-like enzyme activity in releasates: releasates of activated platelets
Protocol: (§1) Platelets collected as described above were resuspended in distilled water and incubated at room temperature for 5 minutes. Lysis was stopped by addition of an equal volume of 2× serum-free DME medium containing 0.2% pyrogen poor bovine serum albumen. The lysate was cleared by centrifugation at 12,000 g for 10 minutes at room temperature before use.
Releasates or hypotonic lysates of activated platelets were assayed using the furin substrate, pyr-RTKR-amc (SEQ ID NO:3) in the absence or presence of the furin inhibitors, hexaarginine (SEQ ID NO: 7) (200 μM) or dec-RVKR-cmk (SEQ ID NO:1) (150 μM). Values were corrected for substrate-independent endogenous fluorescence (control without substrate) as well as for spontaneous substrate hydrolysis (buffer control). Mean values±S.E.M. of 2-3 separate experiments assayed in duplicate are shown.
The presence of furin-like enzyme activity in both hypotonic lysates and releasates of human platelets was analysed using the fluorogenic furin substrate, pyr-RTKR-amc (SEQ ID NO:3). Platelet lysates contained a furin-like enzyme activity, part of which (approximately 12%) was released upon thrombin stimulation. Enzyme activity in cell lysates and releasates was inhibited by dec-RVKR-cmk (SEQ ID NO:1) and hexa-L-arginine (SEQ ID NO: 7) (FIG. 3).

[4] = tested on: latent TGF-β activation in human platelets; test: TGF-β activation by thrombin-activated human platelets, active and total TGF-β by PAI/L bioassay; assay type: cell-based; settings: for active TGF-β in releasates: thrombin-stimulated platelets, hexaarginine pre-incubated, dec-RVKR-cmk added, FIG. 2 panel A
Protocol: Peripheral venous blood samples from healthy adult volunteers (aged 21 to 45) were taken into 20-gauge S-Monovettes. EDTA was used to prevent coagulation of the samples. Human platelets were isolated by differential centrifugation according to the following protocol:
Blood samples were centrifuged at 300 g for 10 minutes to produce a supernatant of platelet rich plasma. Platelet rich plasma was then centrifuged at 2,500 g for 15 minutes to produce a pellet of platelets. Platelets were harvested from the pellet and resuspended prior to use.
as §1
Human platelets collected as outlined above were activated by the addition of thrombin (0.1 u/ml for 30 minutes at 37° C.).
Platelets were activated with thrombin in the absence or presence of furin inhibitors. […] Active and total TGF-β in releasates were determined in the PAI/L bioassay. The results are shown in panel A of FIG. 2.

Compound: CC(C)C[C@H](NC(=O)[C@H]1O[C@@H]1C(=O)O)C(=O)NCCCCN=C(N)N [E-64]
- latent TGF-β activation [1]: ineffective

Compound: O=C[C@@H](O)[C@@H](O)[C@H](O)[C@H](O)COP(=O)(O)O [M6P, mannose-6-phosphate]
- latent TGF-β activation [1]: not significantly affected

Compound: CC(=O)N[C@@H](CC(C)C)C(=O)N[C@@H](CC(C)C)C(=O)N[C@H](C=O)CCCNC(=N)N [leupeptin]
- latent TGF-β activation [1]: ineffective

Compound: Cl.NCCc1ccc(S(=O)(=O)F)cc1 [pefabloc]
- latent TGF-β activation [1]: ineffective

Compound: CC(C)CC(=O)N[C@H](C(=O)N[C@H](C(=O)N[C@@H](CC(C)C)[C@@H](O)CC(=O)N[C@@H](C)C(=O)N[C@@H](CC(C)C)[C@@H](O)CC(=O)O)C(C)C)C(C)C [pepstatin] (Isovaleryl-VV[Sta]A[Sta]-OH)
- latent TGF-β activation [1]: ineffective

Compound: LSKL peptide: inhibitor specific for TSP-1
- latent TGF-β activation [1]: not significantly affected

Compound: aprotinin
- latent TGF-β activation [1]: ineffective

Compound: decanoyl-Arg-Val-Lys-Arg-chloromethyl ketone (Decanoyl-RVKR-CH2Cl) [dec-RVKR-cmk]
- activation in platelet-free releasates [2]: inhibited, in a dose-dependent fashion
- furin-like enzyme activity in cell lysates [3]: inhibited
- furin-like enzyme activity in releasates [3]: inhibited
- generation of active TGF-β intracellularly ([1]; measured in hypotonic lysates, dose-dependent, FIG. 1 panel C): drastically reduced
- generation of active TGF-β in releasates ([1]; platelet incubation with inhibitor, thrombin stimulation, dose-dependent, FIG. 1 panel C): drastically reduced
- residual TGF-β present ([4]; remaining after inhibitor, believed to be activated prematurely during platelet preparation): 20-30%
- active TGF-β in releasates [4]: considerably reduces

Compound: hexa-L-arginine (RRRRRR)
- activation in platelet-free releasates [2]: inhibited, in a dose-dependent fashion
- furin-like enzyme activity in cell lysates [3]: inhibited
- furin-like enzyme activity in releasates [3]: inhibited
- active TGF-β in releasates [4]: significantly reduced

Compound: α1-antitrypsin
- latent TGF-β activation [1]: ineffective

Reference: patent publication US7700562B2, “Use of —furin—“convertase” inhibitors in the treatment of fibrosis and scarring” (Renovo Limited, priority 2002, dated 2010)
